PubChem BioAssay AID1963849 (Molecular Pharmacology Branch, DTP, NCI, 2024)

Tested on: 299254-011-R-J1-PDC complex spheroid viability
Test: Anticancer human tumor 299254-011-R-J1-PDC patient-derived melanoma cell line growth inhibition [POLQ]
Conditions: for IC50: curve of first compound; for viability, T/C: stronger effect = lower value; active means viability on the fitted dose curve at most 10% of control; inactive means the rest
Protocol: Multicellular complex tumor spheroid response to Polymerase (POL) inhibitors (novobiocin, ART-558, RP6685) in combination with a variety of drugs and investigational agents in selected tumor cell lines
The POL inhibitors (novobiocin, ART-558, and RP6685) were evaluated both individually and in combination with standard of care and investigational anticancer small molecules within a complex spheroid model of solid tumors. . Complex spheroids include a stromal component modeled by human endothelial cells (HUVEC) and fibroblasts modeled by human mesenchymal stem cells (MSCs). The concentration ranges selected for each drug and investigational agent were based upon clinically achievable concentrations if the clinical Cmax of the agent was known.
Compounds. The drugs and investigational agents: novobiocin (NSC847541), ART-558 (NSC835418), RP-6685 (NSC848927), peposertib (NSC802822), ceralasertib (NSC780249), elimusertib (NSC800525), camonsertib (NSC841442), AZD-1390 (NSC803789), olaparib (NSC753686), talazoparib (NSC767125), rucaparib (NSC756644), sotorasib (NSC818433), MRTX-1133 (NSC836407), SN-38 (NSC673596), topotecan (NSC609699), epotoside (NSC141540), doxorubicin (NSC123127), gemcitabine (NSC613327), 5-fluorouracil (NSC19893), paclitaxel (NSC125973), vemurafenib (NSC761431), MSA-2 (NSC828583), SN-011 (NSC837082), adavosertib (NSC754352), prexasertib (NSC758257), carboplatin (NSC241240) and oxaliplatin (NSC266046), were obtained from the National Cancer Institute (NCI) Developmental Therapeutics Program Chemical Repository (21). The FDA-approved anticancer drug set is available from the Developmental Therapeutics Program at https://dtp.cancer.gov/organization/dscb/obtaining/. […] The stock solutions were prepared in dimethyl sulfoxide (DMSO, Sigma-Aldrich, St. Louis, MO, cat. D2650), except for the platinum compounds which were prepared in saline (Quality Biological, Gaithersburg, MD, cat. 114-055-101), at 800-fold the tested concentration and stored at -70 degrees C prior to their use. All drugs and investigational agents were tested over a range starting from a high concentration at or near the clinical Cmax and decreasing in half-log increments. If the clinical Cmax for an agent had not been determined, the highest concentration tested was 10 microM, except for SN-38, which was tested at a high concentration of 1 microM.
Cell Culture. All cells were maintained in an incubator at 37 degrees C and 5% CO2 with 95% humidity. The PDC lines were cultured according to standard operating procedures established by the NCI PDMR (https://pdmr.cancer.gov). Table 3 of the manuscript, lists the cell lines along with the number of the three cell types plated to form the mct-spheroids and media for tumor cell growth. After thawing, all PDC lines, except 997537-175-T-J1-PDC and 415267-285-R-J2-PDC, were cultured in Matrigel-coated flasks prepared with a working solution of 1X Ham's F-12 nutrient mix, without supplementation (Thermo Fisher Scientific, cat. 11765054), 100 U/mL penicillin-streptomycin (Thermo Fisher Scientific, cat. 15140122), and 2.5% Matrigel (Corning Inc., Corning, NY, cat. 354248) for the first three passages. The two PDC lines 997537-175-T-J1-PDC and 415267-285-R-J2-PDC were cultured on uncoated flasks. The 857933-349-R-J2-PDC line was cultured in 6C/Colon 1B media containing advanced DMEM/F-12 (Thermo Fisher Scientific, cat. 12634028), 10 mM HEPES (Thermo Fisher Scientific, cat. 15630080), 1X GlutaMAX supplement (Thermo Fisher Scientific, cat. 35050061), 0.1 mg/mL primocin (InvivoGen, San Diego, CA, cat. ant-pm-2), 10% defined fetal bovine serum, heat inactivated (HyClone Laboratories Inc., Logan, UT, cat. SH30070.03HI), 50% L-WRN conditioned media (ATCC, cat. CRL-3276), 1.25 mM N-Acetyl-L-cysteine (Sigma-Aldrich, cat. A9165), 10 mM nicotinamide (Sigma-Aldrich, cat. N0636), 1X B-27 supplement (Thermo Fisher Scientific, cat. 17504044), 1X N-2 supplement (Thermo Fisher Scientific, cat. […]

[1] = second compound 0.0316 µM, first compound 0.0316 µM
[2] = second compound 0.0316 µM, first compound 0.1 µM
[3] = second compound 0.0316 µM, first compound 0.316 µM
[4] = second compound 0.0316 µM, first compound 1 µM
[5] = second compound 0.0316 µM, first compound 3.16 µM
[6] = second compound 0.0316 µM, first compound 10 µM
[7] = second compound 0.1 µM, first compound 0.0316 µM
[8] = second compound 0.1 µM, first compound 0.1 µM
[9] = second compound 0.1 µM, first compound 0.316 µM
[10] = second compound 0.1 µM, first compound 1 µM
[11] = second compound 0.1 µM, first compound 3.16 µM
[12] = second compound 0.1 µM, first compound 10 µM
[13] = second compound 0.316 µM, first compound 0.0316 µM
[14] = second compound 0.316 µM, first compound 0.1 µM
[15] = second compound 0.316 µM, first compound 0.316 µM
[16] = second compound 0.316 µM, first compound 1 µM
[17] = second compound 0.316 µM, first compound 3.16 µM
[18] = second compound 0.316 µM, first compound 10 µM
[19] = second compound 1 µM, first compound 0.0316 µM
[20] = second compound 1 µM, first compound 0.1 µM
[21] = second compound 1 µM, first compound 0.316 µM
[22] = second compound 1 µM, first compound 1 µM
[23] = second compound 1 µM, first compound 3.16 µM
[24] = second compound 1 µM, first compound 10 µM
[25] = second compound 3.16 µM, first compound 0.0316 µM
[26] = second compound 3.16 µM, first compound 0.1 µM
[27] = second compound 3.16 µM, first compound 0.316 µM
[28] = second compound 3.16 µM, first compound 1 µM
[29] = second compound 3.16 µM, first compound 3.16 µM
[30] = second compound 3.16 µM, first compound 10 µM
[31] = second compound 10 µM, first compound 0.0316 µM
[32] = second compound 10 µM, first compound 0.1 µM
[33] = second compound 10 µM, first compound 0.316 µM
[34] = second compound 10 µM, first compound 1 µM
[35] = second compound 10 µM, first compound 3.16 µM
[36] = second compound 10 µM, first compound 10 µM
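Further: spheroids exposed to drugs for one week before measurement.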
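Wherever viability, T/C is given: percent viability relative to DMSO vehicle control taken as 100%.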

COc1cc(C2c3cc4c(cc3C(OC3OC5COC(C)OC5C(O)C3O)C3COC(=O)C23)OCO4)cc(OC)c1O (centres undefined) + COC1C(OC(N)=O)C(O)C(Oc2ccc3c(O)c(NC(=O)c4ccc(O)c(CC=C(C)C)c4)c(=O)oc3c2C)OC1(C)C
9930 nM: IC50 (second compound 1 µM)
inactive: viability, T/C [1] 99% | viability, T/C [2] 85.6% | viability, T/C [3] 101% | viability, T/C [4] 83.7% | viability, T/C [5] 65.8% | viability, T/C [6] 55.1% | viability, T/C [7] 93.8% | viability, T/C [8] 96.1% | viability, T/C [9] 97.4% | viability, T/C [10] 78.3% | viability, T/C [11] 65.3% | viability, T/C [12] 48.2% | viability, T/C [13] 98% | viability, T/C [14] 83.8% | viability, T/C [15] 90.9% | viability, T/C [16] 86.7% | viability, T/C [17] 75.2% | viability, T/C [18] 55.4% | viability, T/C [19] 95.2% | viability, T/C [20] 100% | viability, T/C [21] 99.3% | viability, T/C [22] 101% | viability, T/C [23] 77.2% | viability, T/C [24] 49.9% | viability, T/C [25] 95.5% | viability, T/C [26] 107% | viability, T/C [27] 108% | viability, T/C [28] 95.2% | viability, T/C [29] 63.6% | viability, T/C [30] 59.4% | viability, T/C [31] 103% | viability, T/C [32] 99.7% | viability, T/C [33] 101% | viability, T/C [34] 86.6% | viability, T/C [35] 80.6% | viability, T/C [36] 55.9%
9110 nM: IC50 (second compound 0.1 µM)
> 10000 nM: IC50 (second compound 0.0316 µM) | IC50 (second compound 0.316 µM) | IC50 (second compound 3.16 µM) | IC50 (second compound 10 µM)

COc1cccc2c1C(=O)c1c(O)c3c(c(O)c1C2=O)CC(O)(C(=O)CO)CC3OC1CC(N)C(O)C(C)O1 (centres undefined) + COC1C(OC(N)=O)C(O)C(Oc2ccc3c(O)c(NC(=O)c4ccc(O)c(CC=C(C)C)c4)c(=O)oc3c2C)OC1(C)C
815 nM: IC50 (second compound 0.1 µM)
527 nM: IC50 (second compound 0.316 µM)
826 nM: IC50 (second compound 3.16 µM)
active: viability, T/C [6] 3.09% | viability, T/C [12] 3% | viability, T/C [18] 0.51% | viability, T/C [24] 0.78% | viability, T/C [30] 0.92% | viability, T/C [35] 10.7% | viability, T/C [36] 1.25%
541 nM: IC50 (second compound 10 µM)
564 nM: IC50 (second compound 0.0316 µM)
inactive: viability, T/C [1] 81.9% | viability, T/C [2] 96.5% | viability, T/C [3] 55.2% | viability, T/C [4] 40.7% | viability, T/C [5] 9.45% | viability, T/C [7] 86.8% | viability, T/C [8] 97.5% | viability, T/C [9] 75.7% | viability, T/C [10] 44.9% | viability, T/C [11] 11.2% | viability, T/C [13] 99.2% | viability, T/C [14] 96% | viability, T/C [15] 54.9% | viability, T/C [16] 37.8% | viability, T/C [17] 13.1% | viability, T/C [19] 93% | viability, T/C [20] 87.5% | viability, T/C [21] 76.7% | viability, T/C [22] 49.2% | viability, T/C [23] 11.9% | viability, T/C [25] 92.6% | viability, T/C [26] 95.5% | viability, T/C [27] 76.7% | viability, T/C [28] 45.6% | viability, T/C [29] 10.3% | viability, T/C [31] 105% | viability, T/C [32] 104% | viability, T/C [33] 65.2% | viability, T/C [34] 30%
909 nM: IC50 (second compound 1 µM)
